Test results taken from patent US8772509B2, “Indole compounds as positive allosteric modulators of the muscarinic receptor” (Vanderbilt University, priority 2010, dated 2014).

Biological target: T1, mAChR M1 (UniProt P08482)
T1 sequence (P08482 1-460): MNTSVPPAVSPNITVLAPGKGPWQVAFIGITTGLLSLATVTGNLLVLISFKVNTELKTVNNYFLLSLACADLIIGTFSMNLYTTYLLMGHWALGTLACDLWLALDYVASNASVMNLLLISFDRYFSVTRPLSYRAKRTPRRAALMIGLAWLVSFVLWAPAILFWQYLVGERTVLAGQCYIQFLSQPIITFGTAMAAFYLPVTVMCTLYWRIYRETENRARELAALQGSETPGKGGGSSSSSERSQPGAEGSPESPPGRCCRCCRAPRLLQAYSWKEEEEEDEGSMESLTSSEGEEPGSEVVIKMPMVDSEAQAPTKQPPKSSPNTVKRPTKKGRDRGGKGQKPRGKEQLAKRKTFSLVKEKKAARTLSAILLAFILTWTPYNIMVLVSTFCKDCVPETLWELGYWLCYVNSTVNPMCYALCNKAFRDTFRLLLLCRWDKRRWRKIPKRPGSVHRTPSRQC
Test: mAChR M1 cell-based functional assay (calcium mobilization, Fluo-4, FDSS)
Details: for Efficacy (% ACh maximum at 30 μM): maximal calcium flux response from curve fit or response at 30 μM compound, as % of the EC80 ACh response; for EC50: positive allosteric modulation of EC20 acetylcholine response, CHO-K1 cells expressing mAChR M1, read-out: Potency (EC50)
Protocol: Chinese hamster ovary (CHO-K1) cells stably expressing rat (r)M1 were purchased from the American Type Culture Collection and cultured according to their indicated protocol. […] To make stable rM2, hM2, rM3, hM4, and rM4 cell lines for use in calcium mobilization assays, these cells also were stably transfected with a chimeric G-protein (Gqi5) (provided by B. R. Conklin, University of California, San Francisco) using Lipofectamine 2000. rM1, hM1, rM3, hM3, rM5, and hM5 cells were grown in Ham's F-12 medium containing 10% heat-inactivated fetal bovine serum (FBS), 20 mM HEPES, and 50 μg/mL G418 sulfate. rM2-Gqi5, hM2-Gqi5, and hM4-Gqi5 cells were grown in the same medium also containing 500 μg/mL Hygromycin B. Stable rM4-Gqi5 cells were grown in DMEM containing 10% heat-inactivated FBS, 20 mM HEPES, 400 μg/mL G418 sulfate, and 500 μg/mL Hygromycin B.
For high throughput measurement of agonist-evoked increases in intracellular calcium, CHO-K1 cells stably expressing muscarinic receptors were plated in growth medium lacking G418 and hygromycin at 15,000 cells/20 μL/well in Greiner 384-well black-walled, tissue culture (TC)-treated, clear-bottom plates (VWR). Cells were incubated overnight at 37° C. and 5% CO2. […] Compound master plates were formatted in an 11 point CRC format (1:3 dilutions) in 100% DMSO with a starting concentration of 10 mM using the BRAVO liquid handler (Agilent). Test compound CRCs were then transferred to daughter plates (240 nL) using the Echo acoustic plate reformatter (Labcyte, Sunnyvale, Calif.) and then diluted into assay buffer (40 μL) to a 2× stock using a Thermo Fisher Combi (Thermo Fisher Scientific, Waltham, Mass.).
Calcium flux was measured using the Functional Drug Screening System (FDSS) 6000 (Hamamatsu Corporation, Tokyo, Japan) as an increase in the fluorescent static ratio. Compounds were applied to cells (20 μL, 2×) using the automated system of the FDSS 6000 at 4 s into the 300 s protocol and the data were collected at 1 Hz. […] Agonist activity was analyzed as a concentration-dependent increase in calcium mobilization upon compound addition. Positive allosteric modulator activity was analyzed as a concentration-dependent increase in the EC20 acetylcholine response. Antagonist activity was analyzed as a concentration-dependent decrease in the EC80 acetylcholine response. Concentration-response curves were generated using a four-parameter logistical equation in XLfit curve fitting software (IDBS, Bridgewater, N.J.) for Excel (Microsoft, Redmond, Wash.) or Prism (GraphPad Software, Inc., San Diego, Calif.).
The calcium mobilization assay was also used to determine “efficacy”. In the context of the assays carried out for the data in Table I, “efficacy” (% ACh at 30 μM) is defined as the maximal response in the calcium flux as determined by the sigmoidal curve fit of the concentration response curve, or in the absence of an acceptable curve fit, the response recorded at 30 μM test compound, stated as a percentage of the response elicited by a concentration of Ach that induces approximately 80% of a maximal (i.e. saturating) ACh response.

Row | Compound | Efficacy (% ACh maximum at 30 μM) [%] | EC50 [nM]
1 | O=C(CS(=O)(=O)c1cn(Cc2ccccc2)c2cc(F)cc(F)c12)Nc1ccccn1 [compound 1, 2-((1-benzyl-4,6-difluoro-1H-indol-3-yl)sulfonyl)-N-(pyridin-2-yl)acetamide] | 59 | 990
2 | Cc1cc(NC(=O)CS(=O)(=O)c2cn(Cc3cccc(-c4ccncc4)c3)c3cc(F)cc(F)c23)no1 [compound 2, 2-((4,6-difluoro-1-(3-(pyridin-4-yl)benzyl)-1H-indol-3-yl)sulfonyl)-N-(5-methylisoxazol-3-yl)acetamide] | 66 | 1200
3 | Cc1cc(NC(=O)CS(=O)(=O)c2cn(Cc3cccc(-n4ccnn4)c3)c3cc(F)cc(F)c23)no1 [compound 3, 2-((1-(3-(1H-1,2,3-triazol-1-yl)benzyl)-4,6-difluoro-1H-indol-3-yl)sulfonyl)-N-(5-methylisoxazol-3-yl)acetamide] | 72 | 1500
4 | Cc1cc(NC(=O)CS(=O)(=O)c2cn(Cc3cccc(-c4cn[nH]c4)c3)c3cc(F)cc(F)c23)no1 [compound 4, 2-((1-(3-(1H-pyrazol-4-yl)benzyl)-4,6-difluoro-1H-indol-3-yl)sulfonyl)-N-(5-methylisoxazol-3-yl)acetamide] | 102 | 1850
5 | Cc1cc(NC(=O)CS(=O)(=O)c2cn(Cc3cccc(-c4cn[nH]c4)c3)c3ccccc23)no1 [compound 5, 2-((1-(3-(1H-pyrazol-4-yl)benzyl)-1H-indol-3-yl)sulfonyl)-N-(5-methylisoxazol-3-yl)acetamide] | 90 | 2190
6 | O=C(CS(=O)(=O)c1cn(Cc2cccc(Br)c2)c2cc(F)cc(F)c12)Nc1ccccn1 [compound 6, 2-((1-(3-bromobenzyl)-4,6-difluoro-1H-indol-3-yl)sulfonyl)-N-(pyridin-2-yl)acetamide] | 62 | 2400
7 | O=C(CS(=O)(=O)c1cn(Cc2cccc(Br)c2)c2cc(F)cc(F)c12)Nc1cccnn1 [compound 7, 2-((1-(3-bromobenzyl)-4,6-difluoro-1H-indol-3-yl)sulfonyl)-N-(pyridazin-3-yl)acetamide] | 63 | 2400
8 | Cc1cc(NC(=O)CS(=O)(=O)c2cn(Cc3cccc(-c4cccnc4)c3)c3cc(F)cc(F)c23)no1 [compound 8, 2-((4,6-difluoro-1-(3-(pyridin-3-yl)benzyl)-1H-indol-3-yl)sulfonyl)-N-(5-methylisoxazol-3-yl)acetamide] | 68 | 2400
9 | O=C(CS(=O)(=O)c1cn(Cc2cccc(Br)c2)c2cc(F)cc(F)c12)Nc1nc2ccccc2o1 [compound 9, N-(benzo[d]oxazol-2-yl)-2-((1-(3-bromobenzyl)-4,6-difluoro-1H-indol-3-yl)sulfonyl)acetamide] | 44 | 2500
10 | O=C(CS(=O)(=O)c1cn(Cc2cccc(-n3ccnn3)c2)c2cc(F)cc(F)c12)Nc1ccccn1 [compound 10, 2-((1-(3-(1H-1,2,3-triazol-1-yl)benzyl)-4,6-difluoro-1H-indol-3-yl)sulfonyl)-N-(pyridn-2-yl)acetamide] | 67 | 2600
11 | O=C(CS(=O)(=O)c1cn(Cc2cccc(-c3cccnc3Cl)c2)c2cc(F)cc(F)c12)Nc1ccccn1 [compound 11, 2-((1-(3-(2-chloropyridin-3-yl)benzyl)-4,6-difluoro-1H-indol-3-yl)sulfonyl)-N-(pyridin-2-yl)acetamide] | 43 | 2700
12 | Cc1cc(NC(=O)CS(=O)(=O)c2cn(Cc3cccc(-c4cnn(C)c4)c3)c3ccccc23)no1 [compound 12, 2-((1-(3-(1-methyl-1H-pyrazol-4-yl)benzyl)-1H-indol-3-yl)sulfonyl)-N-(5-methylisoxazol-3-yl)acetamide] | 95 | 2750
13 | [N-]=[N+]=Nc1cccc(Cn2cc(S(=O)(=O)CC(=O)Nc3ccccn3)c3c(F)cc(F)cc32)c1 [compound 13, 2-((1-(3-azidobenzyl)-4,6-difluoro-1H-indol-3-yl)sulfonyl)-N-(pyridin-2-yl)acetamide] | 53 | 2800
14 | O=C(CS(=O)(=O)c1cn(Cc2cccc(-c3ccncc3)c2)c2cc(F)cc(F)c12)Nc1ccccn1 [compound 14, 2-((4,6-difluoro-1-(3-(pyridin-4-yl)benzyl)-1H-indol-3-yl)sulfonyl)-N-(pyridin-2-yl)acetamide] | 55 | 2900
15 | Cc1cc(NC(=O)CS(=O)(=O)c2cn(Cc3cc(-c4cn[nH]c4)ccc3F)c3ccccc23)no1 [compound 15, 2-((1-(2-fluoro-5-(1H-pyrazol-4-yl)benzyl)-1H-indol-3-yl)sulfonyl)-N-(5-methylisoxazol-3-yl)acetamide] | 96 | 3070
16 | COc1ccc(-c2cccc(Cn3cc(S(=O)(=O)CC(=O)Nc4ccccn4)c4c(F)cc(F)cc43)c2)cn1 [compound 16, 2-((4,6-difluoro-1-(3-(6-methoxypyridin-3-yl)benzyl)-1H-indol-3-yl)sulfonyl)-N-(pyridin-2-yl)acetamide] | 42 | 3300
17 | Cc1noc(C)c1-c1cccc(Cn2cc(S(=O)(=O)CC(=O)Nc3ccccn3)c3c(F)cc(F)cc32)c1 [compound 17, 2-((1-(3-(3,5-dimethylisoxazol-4-yl)benzyl)-4,6-difluoro-1H-indol-3-yl)sulfonyl)-N-(pyridin-2-yl)acetamide] | 42 | 3400
18 | COc1ncc(-c2cccc(Cn3cc(S(=O)(=O)CC(=O)Nc4ccccn4)c4c(F)cc(F)cc43)c2)cn1 [compound 18, 2-((4,6-difluoro-1-(3-(2-methoxypyrimidin-5-yl)benzyl)-1H-indol-3-yl)sulfonyl)-N-(pyridin-2-yl)acetamide] | 50 | 3400
19 | O=C(CS(=O)(=O)c1cn(Cc2cccc(-c3ccnc(F)c3)c2)c2cc(F)cc(F)c12)Nc1ccccn1 [compound 20, 2-((4,6-difluoro-1-(3-(2-fluoropyridin-4-yl)benzyl)-1H-indol-3-yl)sulfonyl)-N-(pyridin-2-yl)acetamide] | 36 | 3500
20 | O=C(CS(=O)(=O)c1cn(Cc2cccc(Br)c2)c2cc(F)cc(F)c12)Nc1noc2ccccc12 [compound 21, N-(benzo[d]isoxazol-3-yl)-2-((1-(3-bromobenzyl)-4,6-difluoro-1H-indol-3-yl)sulfonyl)acetamide] | 72 | 3700
21 | Cc1cc(NC(=O)CS(=O)(=O)c2cn(Cc3cccc(Br)c3)c3ccccc23)no1 [compound 22, 2-((1-(3-bromobenzyl)-1H-indol-3-yl)sulfonyl)-N-(5-methylisoxazol-3-yl)acetamide] | 91 | 3790
22 | Cc1cc(NC(=O)CS(=O)(=O)c2cn(Cc3cccc(-c4cc[nH]n4)c3F)c3ccccc23)no1 [compound 23, 2-((1-(2-fluoro-3-(1H-pyrazol-3-yl)benzyl)-1H-indol-3-yl)sulfonyl)-N-(5-methylisoxazol-3-yl)acetamide] | 103 | 4400
